Assay results published in patent publication US20200255884A1, “METHOD OF DETECTION OF DNA END(S) AND ITS USE” (INTODNA SP. Z O.O., priority 2017, published 2020).

Test system: HeLa 21-4 cells
Assay: Procedure 1 on HeLa cells in suspension with subsequent isolation of chromatin, fluorescence spectrophotometer
Assay type: cell-based
Conditions: H2O2 4 mM, 30 minutes
Protocol: In this Example, HeLa 21-4 cells (obtained from P.R. Cook, University of Oxford) were seeded on 6-well plates and cultured for 48 hours in DMEM supplemented with 10% FBS until the culture reached 100% confluency (number of cells: 1.2×10^6 per 1 well). Next, cells were treated with the DNA damaging agent H2O2 which was added directly to the growth medium (final concentration: 4 mM). The cells were incubated at 37° C. for 30 minutes in the standard cell culture incubator with CO2 level control. The control, untreated cells and the damaged cells (H2O2) were then harvested using 0.5 ml trypsin and transferred to 1.5 ml eppendorf tubes. Afterwards, trypsin was inactivated by adding 0.5 ml DMEM supplemented with 10% FBS. Subsequently, cells were spun down in the table top centrifuge (Eppendorf centrifuge, 5417 C, rotor: F45-30-11) (1700 rpm, 5 minutes, room temperature). The cell pellet was resuspended in PBS and again spun down (this washing step was repeated twice). When the supernatant PBS was discarded, cells were resuspended in the remaining droplet of PBS. Subsequently, ice-cold 70% Et(OH) was added dropwise, and cells were incubated in Et(OH) for 30 minutes in −20° C. Then, the cells were treated according to Procedure 1, wherein steps 1, 3, 4, 9 were omitted, and every washing step and every incubation were followed by centrifugation. BrdU was linked to free ends of DNA using TdT enzyme using APO-BRDU kit (Phoenix Flow Systems, AU: 1001) according to the supplier's instructions. […] The fluorescence signal was generated using Duolink® In Situ Detection Reagents Green (Sigma, DUO92014). […]
The level of fluorescence intensity of the cell extract obtained from untreated control cells and the H2O2 damaged cells was measured using a fluorescence spectrophotometer (Hitachi F-7000 supplied with Xe lamp). The fluorescence intensity was measured for 30 s (excitation 480 nm, emission 520 nm).

OO [H2O2]
fluorescence intensity per 1 ng of DNA (cell extract): 3.2±0.3×10^−4 a.u. | flurescence signal per 1 ng of DNA (cell extract): 3.2 ± 0.3 × 10^−4 a.u./ng | fluorescence signal (extract volume 40 μl, excitation 480 nm, emission 520 nm): 0.046 ± 0.005 a.u.
